# Test results reported in patent US7390910B2, “Compounds for treating tumors” (priority 2003, dated 2008).
# Values joined by “and” are separate entries in the source; they are usually repeats but may differ in a detail not shown here. Identical values can stand only once.
# Tests used:
# [1] = test system: bovine microtubule-associated protein (MAP)-rich tubulin; format: biochemical; settings: 0.3 uM
# Outline: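 MAP-rich bovine tubulin at 1.5 mg/ml final was dissolved in cold PEM buffer (80 mM Na-PIPES pH 6.9, 1 mM MgCl2, 1 mM EGTA) with 1 mM GTP, then centrifuged at 12,000×g for 10 min at 4° C. Aliquots of 100 μl were added quickly to a low-volume 96-well plate holding duplicate 10 μl compound samples. Absorbance at 340 nm was read each minute for 60 min at 24° C.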
# S1-M1 = assay: Cell survival assay (SRB), S1-M1; format: cell-based; settings: S1-M1 cells
# Procedure: (§1) Cell Survival Assay: Standard Pharmacological Test Procedure. […] Compounds are incubated with cells for 3 days.
# KBV1 = assay: cells; format: cell-based; settings: for IC50: 3 days, SRB
# Procedure: as §1
# KB85 = assay: cells; format: cell-based; settings: 3 days, SRB
# Procedure: as §1
# KB cells = assay: cells; format: cell-based; settings: 3 days, SRB
# Procedure: as §1
# HCT-15 = assay: Cell survival assay (SRB), HCT-15; format: cell-based; settings: Homo sapiens; HCT-15 cells
# Procedure: as §1
# LOX = assay: Cell survival assay (SRB), LOX; format: cell-based, human; settings: Homo sapiens; LOX cells
# Procedure: as §1
# [2] = test system: Human Melanoma Carcinoma Lox; assay: Growth of tumors in nude mice (LOX xenograft); format: in vivo, athymic nu/nu female mice
# Description: Growth of Tumors in Nude Mice. […] A p-value ≦0.05 indicates a statistically significant reduction in relative tumor growth of treated group compared to that of the vehicle control group.
# Colo205 = assay: Cell survival assay (SRB), Colo205; format: cell-based; settings: Homo sapiens, COLO 205, 72 h, Colo205 cells, 3 days
# Procedure: as §1
# S1 = assay: Cell survival assay (SRB), S1; format: cell-based; settings: S1 cells
# Procedure: as §1
# NCl-H1299 = assay: Cell survival assay (SRB), NCl-H1299; format: cell-based; settings: NCl-H1299 cells
# Procedure: as §1
# KM20 = assay: Cell survival assay (SRB), KM20; format: cell-based; settings: KM20 cells
# Procedure: as §1
# A375 = assay: Cell survival assay (SRB), A375; format: cell-based; settings: A375 cells
# Procedure: as §1
SMILES,Tubulin Polym. % inhibition at 0.3 uM [1],IC50 (S1-M1),"IC50 (KBV1; Homo sapiens, KB-V1, 72 h)",IC50 (KB85; 72 h),"IC50 (KB cells; Homo sapiens, KB, 72 h)",IC50 (HCT-15),IC50 (LOX),IC50 (Colo205),IC50 (S1),IC50 (NCl-H1299),IC50 (KBV1),other results
"CN[C@H](C(=O)N[C@H](C(=O)N(C)[C@H](/C=C(\C)C(=O)N1CCOCC1)C(C)C)C(C)(C)C)C(C)(C)c1ccccc1 [Example 27, (2S)-N-[(1S,2E)-1-isopropyl-3-methyl-4-(4-morpholinyl)-4-oxo-2-butenyl]-N,3,3-trimethyl-2-{[(2S)-3-methyl-2-(methylamino)-3-phenylbutanoyl]amino}butanamide]",69%,336 nM,1300 nM,73.5 nM,43.5 nM,26 nM,50 nM,23 nM,657 nM,38 nM,,"% T/C on day 7 ([2]; 10 mg/kg IV on days 1, 5, 9): 13% and 11%; % T/C on day 12 ([2]; 10 mg/kg IV on days 1, 5, 9, day 12): 2%; % T/C on day 14 ([2]; 10 mg/kg IV on days 1, 5, 9): 2%"
"CN[C@H](C(=O)N[C@H](C(=O)N(C)[C@H](/C=C(\C)C(=O)N1CCC[C@H]1C(=O)OC)C(C)C)C(C)(C)C)C(C)(C)c1ccccc1 [Example 35, N,β,β-trimethyl-L-phenylalanyl-N^1-{(1S,2E)-4-[(2S)-2-(methoxycarbonyl)pyrrolidin-1-yl]-1-isopropyl-3-methyl-4-oxobut-2-enyl}-N^1,3-dimethyl-L-valinamide]",82%,11 nM,291 nM,7.3 nM,1.5 nM,,,,9 nM,,,"% T/C on day 7 ([2]; 2 mg/kg IV on days 1, 5, 9): 5%; % T/C on day 14 ([2]; 2 mg/kg IV on days 1, 5, 9): 1%"
"CN[C@H](C(=O)N[C@H](C(=O)N(C)[C@H](/C=C(\C)C=O)C(C)C)C(C)(C)C)C(C)(C)c1ccccc1 [Example 82, N,β,β-trimethyl-L-phenylalanyl-N^1-[(1S,2E)-1-isopropyl-3-methyl-4-oxo-2-butenyl]-N^1,3-dimethyl-L-valinamide]",51% and 47%,,1940 nM,1330 nM,713 nM,1500 nM,630 nM,5.1 nM,,1570 nM,> 3000 nM,"IC50 (KM20): 4.6 nM; IC50 (A375; Homo sapiens, A-375): 663 nM"
"CN[C@H](C(=O)N[C@H](C(=O)N(C)[C@H](/C=C(\C)C(C)=O)C(C)C)C(C)(C)C)C(C)(C)c1ccccc1 [Example 84, N,β,β-trimethyl-L-phenylalanyl-N^1-[(1S,2E)-1-isopropyl-3-methyl-4-oxo-2-pentenyl]-N^1,3-dimethyl-L-valinamide]",69%,,2360 nM,664 nM,403 nM,1260 nM,550 nM,180 nM,,832 nM,,
"CN[C@H](C(=O)N[C@H](C(=O)N(C)[C@H](/C=C(\C)C(=O)NN)C(C)C)C(C)(C)C)C(C)(C)c1ccccc1 [Example 109, (2S)-N-[(1S,2E)-4-hydrazino-1-isopropyl-3-methyl-4-oxo-2-butenyl]-N,3,3-trimethyl -{[(2S)-3-methyl-2-(methylamino)-3-phenylbutanoyl]amino}butanamide]",,,,,,,,,,,2080 nM,"KBV1 % inhibition @ 3000 nM (KBV1; 3000 nM): 23%; IC50 (KB85): 227 nM; IC50 (KB cells): 65 nM; % T/C on day 7 ([2]; 3 mg/kg IV on days 1, 5, 9): 24%; % T/C on day 13 ([2]; 3 mg/kg IV on days 1, 5, 9, day 13): 8%; IC50 (A375): 19 nM"
